# Results from patent US11773129B2, “Methods of preventing or treating atherosclerosis with inhibitors of specific isoenzymes of human neuraminidase” (THE GOVERNORS OF THE UNIVERSITY OF ALBERTA, priority 2017, dated 2023).
# Like-named read-outs stand apart in the source and are kept apart here.
# Experiments:
# Type in all cases: biochemical
# NEU3 = biological target: T1, NEU3 (Homo sapiens, UniProt Q9UQ49); test: IC50 inhibition assay using 4MU-NANA as the substrate, NEU3; set-up: MBP (N); made in house; host or cells: E. coli; conditions: 4MU-NANA as the substrate; read-out: IC50 NEU3
# T1 sequence (Q9UQ49 1-428): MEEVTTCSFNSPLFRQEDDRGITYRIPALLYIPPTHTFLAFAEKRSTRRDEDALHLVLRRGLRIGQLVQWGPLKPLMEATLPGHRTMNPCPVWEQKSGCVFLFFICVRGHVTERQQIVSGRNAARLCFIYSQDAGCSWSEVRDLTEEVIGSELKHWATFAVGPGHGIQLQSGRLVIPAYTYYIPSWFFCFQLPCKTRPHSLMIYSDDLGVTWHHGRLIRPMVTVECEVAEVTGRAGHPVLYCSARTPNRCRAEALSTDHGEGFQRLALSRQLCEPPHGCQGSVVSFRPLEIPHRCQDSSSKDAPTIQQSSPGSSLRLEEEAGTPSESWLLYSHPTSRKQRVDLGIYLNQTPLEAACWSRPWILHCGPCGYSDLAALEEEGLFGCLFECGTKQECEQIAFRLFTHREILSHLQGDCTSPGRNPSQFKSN
# NEU1 = biological target: T2, NEU1 (Homo sapiens, UniProt Q99519); test: IC50 inhibition assay using 4MU-NANA as the substrate, NEU1
# T2 construct: made in house; host or cells: HEK293 (lentiviral transduction), crude lysate
# Experimental: Two weeks after transduction cells were harvested and a crude lysate showing ˜200 nmol/h mg of sialidase activity used in experiments.
# Assays were performed with duplicates for each point and IC50 was obtained by plotting the data with Graphpad™ Prism 5.0.
# NEU4 = biological target: T3, NEU4 (Homo sapiens, UniProt Q8WWR8); test: IC50 inhibition assay using 4MU-NANA as the substrate, NEU4; set-up: GST; made in house; host or cells: E. coli; conditions: 4MU-NANA as the substrate; read-out: IC50 NEU4
# T3 sequence (Q8WWR8 1-484): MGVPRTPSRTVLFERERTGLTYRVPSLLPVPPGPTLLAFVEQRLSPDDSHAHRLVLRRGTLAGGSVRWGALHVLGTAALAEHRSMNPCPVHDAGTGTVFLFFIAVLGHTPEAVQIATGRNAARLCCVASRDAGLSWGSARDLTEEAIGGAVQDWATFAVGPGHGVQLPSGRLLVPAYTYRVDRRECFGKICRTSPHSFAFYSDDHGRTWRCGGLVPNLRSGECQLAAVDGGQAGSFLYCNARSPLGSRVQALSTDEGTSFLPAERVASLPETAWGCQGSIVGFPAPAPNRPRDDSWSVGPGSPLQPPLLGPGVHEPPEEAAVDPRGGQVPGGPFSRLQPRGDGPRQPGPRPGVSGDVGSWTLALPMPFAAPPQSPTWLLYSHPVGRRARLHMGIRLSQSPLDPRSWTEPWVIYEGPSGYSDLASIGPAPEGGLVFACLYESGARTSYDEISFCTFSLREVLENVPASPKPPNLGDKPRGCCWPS
# NEU1, NEU2, NEU3, NEU4 = test: Isoenzyme specificity/selectivity from 4MU-NANA IC50 across the four human neuraminidases
# [1] = 4MU-NANA as the substrate, read-out: IC50 NEU1
# [2] = isoenzyme(s) the compound is specific for, dual (bispecific) when ratio of IC50 is about 3 or less
IC50 (NEU3) [µM],IC50 (NEU1; [1]) [µM],IC50 (NEU4) [µM],"Target (NEU1, NEU2, NEU3, NEU4; [2])","IC50 (NEU1; target isoenzyme NEU1, 4MU-NANA substrate, read-out: IC50 [μM] NEU1) [µM]",SMILES,"Target (NEU1, NEU2, NEU3, NEU4)"
< 1,0.42 ± 0.07,,,,"CCCCC(C)C(=O)N[C@H]1[C@H]([C@H](O)[C@H](O)CNC(C)=O)OC(C(=O)O)=C[C@@H]1O (mixture of isomers) [compound 74, 5-(2-Methyl)hexanamido(S/R)-9-acetanamido-2,6-anhydro-3,5-dideoxy-d-glycero-d-galacto-non-2-enonic acid]",
> 500,> 500,> 500,,,"CCCCC(=O)N[C@H]1C=C(C(=O)O)O[C@@H]([C@H](O)[C@H](O)CO)[C@@H]1NC(C)=O [25b, 5-Acetamido-2,6-anhydro-4-pentanamido-3,4,5-trideoxy-D-glycero-D-galacto-non-2-enonic acid]",
> 500,4.3 ± 0.8,> 500,NEU1,,"CCCCCC(=O)NC[C@@H](O)[C@@H](O)[C@@H]1OC(C(=O)O)=C[C@H](O)[C@H]1NC(=O)CCCCC [compound 64, 5-Hexanamido-9-hexanamido-2,6-anhydro-3,5-dideoxy-d-glycero-d-galacto-non-2-enonic acid]",
> 500,1.2 ± 0.1,> 500,NEU1,,"CCCCCC(=O)N[C@H]1[C@H]([C@H](O)[C@H](O)CNC(=O)CCC)OC(C(=O)O)=C[C@@H]1O [compound 70, 5-Hexanamido-9-butanamido-2,6-anhydro-3,5-dideoxy-D-glycero-D-galacto-non-2-enonic acid]",
39 ± 8,9.9 ± 1.3,310 ± 30,NEU1,,"CCCCCCC(=O)NCC(O)C(O)C1OC(C(=O)O)=CC(O)[C@H]1NC(C)=O (stereo partly drawn) [compound 52, 5-Acetamido-9-heptanamido-2,6-anhydro-3,5-dideoxy-D-glycero-D-galacto-non-2-enonic acid]",
,0.14 ± 0.01,170 ± 100,NEU1,,"CCCCCC(=O)N[C@H]1[C@H]([C@H](O)[C@H](O)CNC(C)=O)OC(C(=O)O)=C[C@@H]1O [compound 68, 5-Hexanamido-9-acetamido-2,6-anhydro-3,5-dideoxy-D-glycero-D-galacto-non-2-enonic acid]",
,0.35 ± 0.03,> 500,NEU1,,"CCCCC(=O)N[C@H]1[C@H]([C@H](O)[C@H](O)CNC(C)=O)OC(C(=O)O)=C[C@@H]1O [compound 67, 5-Pentanamido-9-acetamido-2,6-anhydro-3,5-dideoxy-D-glycero-D-galacto-non-2-enonic acid]",
,0.42 ± 0.06,440 ± 150,NEU1,0.4,"CCCCCC(=O)N[C@H]1[C@H]([C@H](O)[C@H](O)CO)OC(C(=O)O)=C[C@@H]1O [compound 32, 5-Hexanamido-2,6-anhydro-3,5-dideoxy-D-glycero-D-galacto-non-2-enonic acid]",
> 500,> 500,> 500,,,"CCC(=O)N[C@H]1C=C(C(=O)O)O[C@@H]([C@H](O)[C@H](O)CO)[C@@H]1NC(C)=O [25a, 5-Acetamido-2,6-anhydro-4-propionamido-3,4,5-trideoxy-D-glycero-D-galacto-non-2-enonic acid]",
> 500,> 500,110 ± 20,,,Cc1ccc(-c2cn(CC(=O)N[C@@H]3C(O)C=C(C(=O)O)OC3C(O)C(O)CO)nn2)cc1 (stereo partly drawn) [compound 42],
4.4 ± 0.9,24 ± 2,5.6 ± 0.8,,,"[N-]=[N+]=NCC(=O)N[C@@H]1C(O)C=C(C(=O)O)OC1C(O)C(O)CO (stereo partly drawn) [compound 40, 5-(N-2-azidoacetyl)-2,3,5-trideoxy-D-glycero-D-galacto-2-nonulopyranosonic acid]",
> 500,> 500,> 500,,,"CC(=O)N[C@H]1[C@H]([C@H](O)[C@H](O)CO)OC(C(=O)O)=C[C@@H]1NC(=O)C1CCC1 [25d, 5-Acetamido-2,6-anhydro-4-cyclobutanecarboxamido-3,4,5-trideoxy-D-glycero-D-galacto-non-2-enonic acid]",
< 1,0.55 ± 0.07,,,,"CCCCC(C)C(=O)N[C@H]1[C@H]([C@H](O)[C@H](O)CO)OC(C(=O)O)=C[C@@H]1O (mixture of isomers) [compound 72, 5-(2-Methyl)hexanamido(S/R)-2,6-anhydro-3,5-dideoxy-d-glycero-d-galacto-non-2-enonic acid]",
,0.4 ± 0.1,270 ± 70,NEU1,,"CCCCCC(=O)N[C@H]1[C@H]([C@H](O)[C@H](O)CNC(=O)CC)OC(C(=O)O)=C[C@@H]1O [compound 69, 5-Hexanamido-9-propionamido-2,6-anhydro-3,5-dideoxy-d-glycero-d-galacto-non-2-enonic acid]",
250 ± 90,4 ± 0.5,,,,"CCCC(=O)NCC(O)C(O)C1OC(C(=O)O)=CC(O)[C@H]1NC(C)=O (stereo partly drawn) [compound 49, 5-Acetamido-9-butyramido-2,6-anhydro-3,5-dideoxy-D-glycero-D-galacto-non-2-enonic acid]",
150 ± 20,14 ± 2,47 ± 7,,,"CC(C)CCC(=O)N[C@H]1[C@H]([C@H](O)[C@H](O)CO)OC(C(=O)O)=C[C@@H]1NC(=N)N [compound 71, 5-(4-methylpentanamido)-2,6-anhydro-4-guanidino-3,4,5-trideoxy-D-glycero-D-galacto-non-2-enonic acid]",
,1.8 ± 0.2,,,,"CCCCC(CC)C(=O)N[C@H]1[C@H]([C@H](O)[C@H](O)CNC(C)=O)OC(C(=O)O)=C[C@@H]1O (mixture of isomers) [compound 73, 5-(2-Ethyl)hexanamido(S/R)-9-acetanamido-2,6-anhydro-3,5-dideoxy-d-glycero-d-galacto-non-2-enonic acid]",
72 ± 20,2.5 ± 0.3,130 ± 40,,,"CC(=O)N[C@@H]1C(O)C=C(C(=O)O)OC1C(O)C(O)CNC(=O)CC(C)C (stereo partly drawn) [compound 54, 5-Acetamido-9-(3-methylbutanamido)-2,6-anhydro-3,5-dideoxy-D-glycero-D-galacto-non-2-enonic acid]",
> 500,> 500,> 500,,,"CC(=O)N[C@H]1[C@H]([C@H](O)[C@H](O)CO)OC(C(=O)O)=C[C@@H]1NC(=O)C1CC1 [25c, 5-Acetamido-2,6-anhydro-4-cyclopropanecarboxamido-3,4,5-trideoxy-b-glycero-D-galacto-non-2-enonic acid]",
96 ± 28,,230 ± 60,,,"CC(=O)N[C@@H]1C(O)C=C(C(=O)O)OC1C(O)C(O)CNC(=O)C(C)C (stereo partly drawn) [compound 53, 5-Acetamido-9-isobutyramido-2,6-anhydro-3,5-dideoxy-D-glycero-D-galacto-non-2-enonic acid]",
< 1,0.58 ± 0.03,,,,"CCCCC(CC)C(=O)N[C@H]1[C@H]([C@H](O)[C@H](O)CO)OC(C(=O)O)=C[C@@H]1O (mixture of isomers) [compound 75, 5-(2-Ethyl)hexanamido(SIR)-2,6-anhydro-3,5-dideoxy-d-glycero-d-galacto-non-2-enonic acid]",
430 ± 100,> 500,130 ± 20,,,Nc1ccc(-c2cn(CC(=O)N[C@@H]3C(O)C=C(C(=O)O)OC3C(O)C(O)CO)nn2)cc1 (stereo partly drawn) [compound 46],

SMILES,IC50 (NEU3) [µM],IC50 (NEU1; [1]) [µM],IC50 (NEU4) [µM],"Target (NEU1, NEU2, NEU3, NEU4; [2])","IC50 (NEU1; target isoenzyme NEU1, 4MU-NANA substrate, read-out: IC50 [μM] NEU1) [µM]","Target (NEU1, NEU2, NEU3, NEU4)"
"CCCCCC(=O)NCC(O)C(O)C1OC(C(=O)O)=CC(O)[C@H]1NC(C)=O (stereo partly drawn) [compound 51, 5-Acetamido-9-hexanamido-2,6-anhydro-3,5-dideoxy-D-glycero-D-galacto-non-2-enonic acid]",83 ± 9,,290 ± 30,,,NEU1
"CCCCCc1cn(C[C@@H](O)[C@@H](O)[C@@H]2OC(C(=O)O)=C[C@H](O)[C@H]2NC(C)=O)nn1 [compound 63, 5-Acetamido-9-(4-pentyl)triazolyl-2,6-anhydro-3,5-dideoxy-d-glycero-d-galacto-non-2-enonic acid]",6.7 ± 1.2,,2.6 ± 0.6,NEU3/ NEU4,,
